Measurements published in article PMC5503534, “Stable aneuploid tumors cells are more sensitive to TTK inhibition than chromosomally unstable cell lines” (Oncotarget, 2017).
Like-named read-outs stand apart in the source and are kept apart here.

Legend:
[1] = system: post-tetraploid HPT1 cells; assay: Cell proliferation assay, post-tetraploid HPT1; assay type: cell-based, human; conditions: HPT1, five days; for Efficacy (%): average of three experiments; for IC50: geometric average of three experiments
Description: (§1) Cancer cell lines and hTERT-RPE1 retinal pigment epithelial cells were purchased from the American Type Culture Collection (ATCC) (Manassas, VA, U.S.A.) from 2011 to 2014 [41] and cultured in ATCC-recommended media. All experiments were carried out within nine passages of the original vials from ATCC who authenticated the cancer cell lines by short tandem repeat analysis. We verified the mutant status of seven frequently mutated cancer genes (i.e., BRAF, CDKN2A, CTNNB1, EGFR, KRAS, PIK3CA and TP53) by full exome or targeted sequencing. Sequencing results were compared to COSMIC version 75 of the Genomics of Drug Sensitivity in Cancer data base and provided additional authentication of the identity of the cell lines. The isolation and characterization of post-tetraploid clones from HCT 116 has been described previously. The mutation status of the CDKN2A, CTNNB1, KRAS and PIK3CA genes were confirmed by sequence analysis in both the HCT 116 parental cell line and post-tetraploid clones. All experiments were carried out within nine passages of the original cell stocks that were transferred from the Max Planck Institute of Biochemistry (Martinsried, Germany) to Netherlands Translational Research Center.
(§2) Cell proliferation assays were carried out as described using ATPlite 1step™ (Perkin Elmer, Groningen, The Netherlands). Exposure time was 72 or 120 hours as indicated in the Legends to the Figures. Percentage growth was calculated, relative to the growth of unexposed cells, and relative IC50s were fitted using a four-parameter logistics curve (XLfit 5.3, IDBS). For Figure 4A and 7 dose response curves were redrawn in Prism. To compare the inhibitory potency of compounds in proliferation assays with HCT 116 parental and tetraploid clones, pIC50 (−^10logIC50) values were compared in three independent experiments. A two-tailed Student's t-test was performed to determine whether differences in sensitivity (ΔpIC50) were statistically significant. Caspase 3/7 activity of cancer cells was measured using Caspase-Glo 3/7 Assay kit (cat no. G8093, Promega, Madison USA). Viability of T-ALL cell samples was determined using ATPlite and exposure of 72 hours as described previously.

[2] = system: post-tetraploid HPT2 cells; assay: Cell proliferation assay, post-tetraploid HPT2; assay type: cell-based, human; conditions: HPT2, five days; for Efficacy (%): average of three experiments; for IC50: geometric average of three experiments
Description: as §1, §2

[3] = system: post-tetraploid HPT4 cells; assay: Cell proliferation assay, post-tetraploid HPT4; assay type: cell-based, human; conditions: HPT4, five days; for Efficacy (%): average of three experiments; for IC50: geometric average of three experiments
Description: as §1, §2

[4] = system: HCT 116 colon carcinoma cell line; assay: Cell proliferation assay (ATPlite), HCT 116; assay type: cell-based, human; conditions: for Eff. (%): HCT 116, five days, maximum inhibitory effect, average of three experiments; for IC50: HCT 116 near-diploid, five days, geometric average of three experiments (Suppl. Table 2A)
Description: as §2

[5] = system: HCT 116 vs HPT1, -2 and -4; assay: Drug sensitivity analysis, HCT116 diploid versus tetraploids; assay type: cell-based, human; conditions: for Δeff. (%) / Phenotype (potency): HCT 116 vs HPT1, -2 and -4; for Phenotype (efficacy): HCT 116 vs HPT1, -2 and -4, based on % effect; for Phenotype (potency): 'resistant' indicates that tetraploids are resistant; for ΔpIC50: average log shift in sensitivity between parental and tetraploids
Description: as §2

[6] = system: LoVo colorectal adenocarcinoma cell line; conditions: three day cell proliferation assay; cited from earlier work
[7] = system: HCT 116 colon carcinoma cell line; conditions: three day cell proliferation assay; cited from earlier work
full-length Aurora B = target: T1, full-length Aurora B (Homo sapiens, UniProt Q96GD4); assay: Surface plasmon resonance binding kinetics, Aurora B; conditions: SPR, geometric average
T1 construct: to the kinase domain of TTK and full-length Aurora B; purchased Carna Biosciences, Inc., Kobe, Japan; host or cells: Sf9 insect cells
Description: Originally, the compound was identified in a phenotypic screen for molecules that can induce stem-cell like phenotypes. Later this property was attributed to its ability to inhibit the mitotic kinase Aurora B [39].

[8] = system: A-172 glioblastoma cell line; conditions: three day cell proliferation assay; cited from earlier work
[9] = system: DoTc2 4510 cervix carcinoma cell line; conditions: three day cell proliferation assay; cited from earlier work
[10] = system: OVCAR-3 ovary adenocarcinoma cell line; conditions: three day cell proliferation assay; cited from earlier work
[11] = system: MG-63 osteosarcoma cell line; conditions: three day cell proliferation assay; cited from earlier work
[12] = system: 66 cancer cell lines (44 cell lines); set-up: method as in earlier work; conditions: 3 days; geometric average in 44 cell lines; cited from earlier work
[13] = system: pediatric T-ALL patient cell samples; assay: Viability assays with T-ALL patient samples; assay type: cell-based, human; conditions: Homo sapiens, 72 h
Description: Written informed consent was obtained from the parents or legal guardians of each T-ALL patient to use excess diagnostic material for research purposes. The study was performed in accordance with the Institutional Review Board of the Erasmus Medical Center Rotterdam (The Netherlands) and in accordance with the Declaration of Helsinki. Leukemic cells were harvested from blood or bone marrow samples and were enriched to ≥ 90% purity.
as §2

[14] = mouse, in vivo; cited from earlier work

T1 sequence (Q96GD4 whole entry, the tested form may be a part): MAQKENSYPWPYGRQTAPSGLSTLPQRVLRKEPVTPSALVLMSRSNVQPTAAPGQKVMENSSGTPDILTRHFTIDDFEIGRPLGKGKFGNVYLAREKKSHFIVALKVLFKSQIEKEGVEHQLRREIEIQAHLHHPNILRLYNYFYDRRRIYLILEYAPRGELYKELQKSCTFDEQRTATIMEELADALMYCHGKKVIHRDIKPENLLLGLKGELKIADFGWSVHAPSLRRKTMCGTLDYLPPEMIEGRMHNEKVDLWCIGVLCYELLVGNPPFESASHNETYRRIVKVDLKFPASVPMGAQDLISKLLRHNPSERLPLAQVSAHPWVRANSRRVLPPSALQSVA

| Compound | Efficacy (%) [1] | IC50 ([1]; Homo sapiens, 120 h) | Efficacy (%) [2] | IC50 ([2]; Homo sapiens, 120 h) | Efficacy (%) [3] | IC50 ([3]; Homo sapiens, 120 h) | Eff. (%) [4] | IC50 ([4]; Homo sapiens, 120 h) | Δeff. (%) [5] | Phenotype (efficacy) [5] | Phenotype (potency) [5] | ΔpIC50 [5] | IC50 [6] | IC50 [7] | IC50 [8] | IC50 [9] | IC50 [10] | IC50 [11] | other results |
| --- | --- | --- | --- | --- | --- | --- | --- | --- | --- | --- | --- | --- | --- | --- | --- | --- | --- | --- | --- |
| CCn1cc(-c2ccnc3[nH]c(-c4cccc(CN(C)C)c4)cc23)c(-c2ccc(NC(=O)N(C)C)cc2)n1 [GSK-1070916] | 32% | 16 nM | 100% | 1700 nM | 100% | 1680 nM | 61% | 14 nM | 16% | sensitive | resistant | 1.41 |  |  |  |  |  |  |  |
| O=C(O)c1ccc(Nc2ncc3c(n2)-c2ccc(Cl)cc2C(c2c(F)cccc2F)=NC3)cc1 [MLN-8054] | 61% | 1330 nM | 52% | 1550 nM | 56% | 1200 nM | 85% | 715 nM | −28% | resistant | resistant | 0.28 |  |  |  |  |  |  |  |
| Cc1cc(N2CCOCC2)ccc1Nc1nc(NC2CCCCC2)c2[nH]cnc2n1 [MPI-047605] | 52% |  | 46% |  | 51% |  | 72% |  | −22% | resistant | sensitive | −0.07 | 220 nM | 234 nM | 198 nM | 8390 nM | 7330 nM | 899 nM | ka (full-length Aurora B): 9550 M⁻¹ s⁻¹; kd (full-length Aurora B): 0.291 s⁻¹; IC50 [1]: 208 nM; IC50 [2]: 199 nM; IC50 [3]: 191 nM; IC50 [12]: 448 nM; IC50 [4]: 233 nM |
| N[C@@H](CSC(c1ccccc1)(c1ccccc1)c1ccccc1)C(=O)O [STLC, S-trityl-L-cysteine] | 90% | 2040 nM | 93% | 1340 nM | 95% | 1400 nM | 99% |  | −6% | resistant | resistant | 0.34 |  |  |  |  |  |  |  |
| CC(C)C[C@H](NC(=O)[C@H](Cc1ccccc1)NC(=O)c1cnccn1)B(O)O [bortezomib] |  |  |  |  |  |  |  |  |  |  |  |  |  |  |  |  |  |  | IC50 ([13]; all ten T-ALL patient samples, three days, read-out: IC50): < 10 nM; IC50 ([13]; patient sample 491, three-day assay, read-out: IC50): 3 nM; IC50 ([13]; patient sample 1033, three-day assay, read-out: IC50): 3 nM; IC50 ([13]; patient sample 1816, three-day assay, read-out: IC50): 2 nM; IC50 ([13]; patient sample 2323, three-day assay, read-out: IC50): 3 nM; IC50 ([13]; patient sample 3594, three-day assay, read-out: IC50): 4 nM; IC50 ([13]; patient sample 3852, three-day assay, read-out: IC50): 4 nM; IC50 ([13]; patient sample 4023, three-day assay, read-out: IC50): 3 nM; IC50 ([13]; patient sample 4126, three-day assay, read-out: IC50): 3 nM; IC50 ([13]; patient sample 4992, three-day assay, read-out: IC50): 3 nM; IC50 ([13]; patient sample 10110, three-day assay, read-out: IC50): 3 nM |
| N.N.[Cl][Pt][Cl] [cisplatin] |  |  |  |  |  |  |  |  |  |  |  |  | 6730 nM | 6210 nM | 15900 nM | 7400 nM | 11300 nM | 4510 nM |  |
| CN(C)/N=N/c1[nH]cnc1C(N)=O [dacarbazine] |  |  |  |  |  |  |  |  |  |  |  |  | 5290 nM | 18600 nM | 31600 nM | 3090 nM | 13900 nM | 16000 nM |  |
| COc1cccc2c1C(=O)c1c(O)c3c(c(O)c1C2=O)C[C@@](O)(C(C)=O)C[C@@H]3O[C@H]1C[C@H](N)[C@H](O)[C@H](C)O1 [daunorubicin] |  |  |  |  |  |  |  |  |  |  |  |  |  |  |  |  |  |  | IC50 ([13]; all ten T-ALL patient samples, three days): < 100 nM; IC50 ([13]; patient sample 491, three-day assay): 80 nM; IC50 ([13]; patient sample 1033, three-day assay): 43 nM; IC50 ([13]; patient sample 1816, three-day assay): 38 nM; IC50 ([13]; patient sample 2323, three-day assay): 80 nM; IC50 ([13]; patient sample 3594, three-day assay): 43 nM; IC50 ([13]; patient sample 3852, three-day assay): 61 nM; IC50 ([13]; patient sample 4023, three-day assay): 57 nM; IC50 ([13]; patient sample 4126, three-day assay): 71 nM; IC50 ([13]; patient sample 4992, three-day assay): 41 nM; IC50 ([13]; patient sample 10110, three-day assay): 42 nM |
| CC(=O)O[C@@]12CO[C@@H]1C[C@H](O)[C@@]1(C)C(=O)[C@H](O)C3=C(C)[C@@H](OC(=O)[C@H](O)[C@@H](NC(=O)OC(C)(C)C)c4ccccc4)C[C@@](O)([C@@H](OC(=O)c4ccccc4)[C@H]21)C3(C)C [docetaxel] |  |  |  |  |  |  |  |  |  |  |  |  | 8 nM | 2 nM | 3 nM | 3 nM | 4 nM | 1 nM | effect on bone marrow or blood cell count (hematological toxicity) [14]: hematological toxicity was seen |
| COc1cccc2c1C(=O)c1c(O)c3c(c(O)c1C2=O)C[C@@](O)(C(=O)CO)C[C@@H]3O[C@H]1C[C@H](N)[C@H](O)[C@H](C)O1 [doxorubicin] | 99% | 69 nM | 100% | 130 nM | 100% | 83 nM | 97% | 31 nM | 3% | sensitive | resistant | 0.46 |  |  |  |  |  |  |  |
| CC(=O)O[C@H]1C(=O)[C@@]2(C)[C@H]([C@H](OC(=O)c3ccccc3)[C@]3(O)C[C@H](OC(=O)[C@H](O)[C@@H](NC(=O)c4ccccc4)c4ccccc4)C(C)=C1C3(C)C)[C@]1(OC(C)=O)CO[C@@H]1C[C@@H]2O [paclitaxel] |  |  |  |  |  |  |  |  |  |  |  |  | 23 nM | 5 nM | 17 nM | 10 nM | 26 nM | 6 nM |  |
| CC[C@@H]1C(=O)N(C)c2cnc(Nc3ccc(C(=O)N[C@H]4CC[C@H](N5CCN(CC6CC6)CC5)CC4)cc3OC)nc2N1C(C)C [volasertib] | 82% | 26 nM | 65% | 45 nM | 84% | 49 nM | 98% | 25 nM | −21% | resistant | resistant | 0.19 |  |  |  |  |  |  |  |
